Assay results published in patent publication US12636309B2, “Storage stable formulations of sulfated glycosaminoglycans and fragments derived therefrom for the treatment of pain and other medical conditions” (ADORA ANIMAL HEALTH CORPORATION, priority 2022, dated 2026).
Values belong to the substance of their own block, whether it stands above or below them.

Legend:
[1] = Electrophoresis of polyanionic property on cellulose acetate membrane; type: physicochemical; details: 0.2 N hydrochloric acid, about 65 mA for 65 minutes; for DISTANCE (CM): electrophoretic migration from cathode end, toluidine blue stain
Protocol: The unique polyanionic property of polysulfated glycosaminoglycan (PSGAG) is determined by electrophoresis. A 70 mm cellulose acetate (CA) membrane, saturated with 0.2 N hydrochloric acid is suspended with contact between the cathode and anode of an electrophoresis chamber. A test solution of PSGA G containing about 1 microgram of PSGAG is applied to the cathode end of the strip. A current of about 65 mA is applied for 65 minutes. The CA membrane is removed from the tank, then stained with a 0.1% toluidine blue solution for 5 minutes. The CA membrane is rinsed with a sufficient quantity of water to remove the excess toluidine blue. On the strip, PSGAG appears as only one violet-blue spot at a distance of approximately 3 cm from its starting point.
The cathode is the negative terminal of the electrophoresis chamber. Anionic compounds, such as PSGAG, under an applied current will migrate towards the chamber's anode (i.e., its positive terminal). The polyanionic property of PSGAG was compared to hyaluronic acid, chondroitin sulfate A, chondroitin sulfate B (dermatan sulfate), chondroitin sulfate C, heparin sulfate and keratan sulfate using electrophoresis.

metalloproteases = details: cited from earlier work
elastase = details: cited from earlier work
synovial membrane cells = synovial membrane cells in vitro; cited from earlier work
[2] = rabbits, IM injection; incl. articular cartilage, synovial fluid, kidneys, brain, liver, skin, heart; cited from earlier work
cathepsin B1 = cathepsin B1 (Homo sapiens, UniProt P07858); details: cited from earlier work
rabbit chondrocytes = details: cultured rabbit chondrocytes; cited from earlier work
stromelysin = stromelysin (Homo sapiens, UniProt P08254); details: cited from earlier work
serine proteinases = details: in vitro; cited from earlier work
[3] = system: Prostaglandin E2 (PGE2) synthesis; details: cited from earlier work
hyaluronidases = details: cited from earlier work
human chondrocytes = details: cultured human chondrocytes; cited from earlier work

Chain of stromelysin (P08254 100-477): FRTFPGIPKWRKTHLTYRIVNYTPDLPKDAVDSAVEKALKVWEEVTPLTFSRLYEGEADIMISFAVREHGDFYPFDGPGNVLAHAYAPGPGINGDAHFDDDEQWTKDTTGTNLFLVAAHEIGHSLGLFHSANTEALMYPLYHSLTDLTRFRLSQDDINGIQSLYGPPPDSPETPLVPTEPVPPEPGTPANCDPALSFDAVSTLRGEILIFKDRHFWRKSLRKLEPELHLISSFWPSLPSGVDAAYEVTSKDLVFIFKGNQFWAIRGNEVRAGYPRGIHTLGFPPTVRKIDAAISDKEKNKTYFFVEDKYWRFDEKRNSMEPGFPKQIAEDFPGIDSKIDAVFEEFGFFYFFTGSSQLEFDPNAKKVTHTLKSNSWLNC

Substance: chondroitin sulfate A
- DISTANCE (CM) [1]: 2.1 ± 0.0 (n = 2) CM

Substance: chondroitin sulfate B (dermatan sulfate)
- DISTANCE (CM) [1]: 1.7 ± 0.0 (n = 2) CM

Substance: heparin sulfate
- DISTANCE (CM) [1]: 2.3 ± 0.0 (n = 2) CM

Substance: hyaluronic acid
- DISTANCE (CM) [1]: 1.1 ± 0.1 (n = 2) CM

Substance: polysulfated glycosaminoglycan [PSGAG]
- distance of the violet-blue spot from its starting point [1]: approximately 3 cm
- DISTANCE (CM) [1]: 3.1 ± 0.3 (n = 12) CM
- inhibition of metalloproteases (metalloproteases): inhibit
- inhibition of elastase (elastase): inhibit
- effect on hyaluronic acid synthesis (synovial membrane cells): specific potentiating effect
- tissue distribution [2]: distributed to all tissues studied
- inhibition of cathepsin B1 (cathepsin B1): inhibit
- synthesis of proteoglycan and hyaluronic acid (rabbit chondrocytes): increased synthesis
- inhibition of stromelysin (stromelysin): inhibit
- inhibition of serine proteinases (serine proteinases): significantly inhibit
- inhibition of Prostaglandin E2 (PGE2) synthesis [3]: inhibitor
- inhibition of hyaluronidases (hyaluronidases): inhibit
- synthesis of proteoglycan and hyaluronic acid (human chondrocytes): increased synthesis

The next lines start with the values.

- DISTANCE (CM) [1]: 2.0 ± 0.3 (n = 2) CM
Substance: chondroitin sulfate C

- DISTANCE (CM) [1]: 2.5 ± 0.1 (n = 2) CM
Substance: keratan sulfate [Keratin Sulfate]
